The values that follow come from ChEMBL document CHEMBL1201862, “PubChem BioAssay data set” (2004).

Each structure is given as a SMILES string.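 Compound exposure: 48 hours, 5 concentrations, 96-well plates. GI50 marks 50% less growth.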 The source made the active and inactive calls. No stated cut-off is given here; in the data, active = GI50 up to about 1.1 µM and inactive = higher. Some results are limits rather than exact numbers.

Test systems include OVCAR-8; HCT-116; IGROV-1; PC-3; HCT-15; Malme-3M; NCI-H23; SK-MEL-28; ACHN; HOP-62; UO-31; UACC-257; OVCAR-4; HL-60; COLO 205; HT-29; NCI-H522; SK-OV-3; HCC 2998; A498.
What all share (experiment): growth of human tumour cells (NCI), 48 h

Take `CC(=O)CCC1(C(=O)OCC(C)C)CCCC1=O` (stereo unspecified): the GI50 in the assay with OVCAR-8 was > 100 µM (inactive); in the assay with HCT-116, > 100 µM (inactive); in the assay on IGROV-1 it was > 100 µM (inactive); with PC-3, > 100 µM (inactive); in the assay on HCT-15, above 100 µM; in the assay with Malme-3M, > 100 µM (inactive). The GI50 with NCI-H23, with SK-MEL-28, with ACHN, in the assay on HOP-62, in the assay with UO-31 and in the assay on UACC-257 was > 100 µM (inactive) in each case. Besides, the GI50 with OVCAR-4, in the assay on HL-60, with COLO 205, with HT-29, with NCI-H522 and in the assay on SK-OV-3 was > 100 µM (inactive) each time.
Turning to `O=C(Oc1c(Br)cc(Br)cc1C(=O)Oc1ccccc1)C(=O)Oc1c(Br)cc(Br)cc1C(=O)Oc1ccccc1`, the GI50 was 30.8 µM (inactive) with OVCAR-8; 14.4 µM (inactive) in the assay with HCT-116; 26.7 µM (inactive) with IGROV-1; 20.2 µM (inactive) in the assay with PC-3; 31 µM (inactive) with HCC 2998; 20.7 µM in the assay on HCT-15. For the same compound, the GI50 is 20.9 µM (inactive) with Malme-3M; 0.621 µM (active) with NCI-H23; 28.7 µM (inactive) in the assay on SK-MEL-28; 27.7 µM (inactive) in the assay on ACHN; 16.2 µM (inactive) with HOP-62; 16 µM (inactive) with UO-31. Besides, the GI50 is 39 µM (inactive) in the assay with UACC-257; < 0.01 µM (active) in the assay on HL-60; 21.6 µM (inactive) with COLO 205; 32.7 µM (inactive) with HT-29; 14.4 µM (inactive) with NCI-H522; 33.8 µM (inactive) with SK-OV-3.
Turning to `Cc1cc(Cl)ccc1NC(=O)/C(Cl)=C(/Cl)C(=O)O`, the GI50 is 17.7 µM (inactive) with OVCAR-8; 19 µM (inactive) in the assay with HCT-116; 21.4 µM (inactive) with PC-3; 17.9 µM (inactive) in the assay with HCC 2998; 18.7 µM in the assay on HCT-15; 29.3 µM (inactive) with NCI-H23. The GI50 in the assay on SK-MEL-28 is 22.1 µM (inactive); with ACHN, 19.3 µM (inactive); with HOP-62, 22.2 µM (inactive); in the assay on UO-31 it was > 100 µM (inactive); in the assay on UACC-257 it was 19.7 µM (inactive); in the assay on HL-60 it was 25.7 µM (inactive). The GI50 in the assay with COLO 205 is 28.4 µM (inactive); in the assay with HT-29, 22.9 µM (inactive); with NCI-H522, 15.4 µM (inactive); in the assay on SK-OV-3 it was > 100 µM (inactive).
In the case of `COC(=O)/C(C#N)=C1\NC(=O)CC(c2ccccc2)C1C#N` (stereo unspecified), the GI50 in the assay on OVCAR-8 is > 100 µM (inactive); in the assay on HCT-116, > 100 µM (inactive); in the assay on IGROV-1, > 100 µM (inactive); in the assay with PC-3, > 100 µM (inactive); with HCC 2998 it was > 100 µM (inactive); in the assay with HCT-15, above 100 µM. For the same compound, the GI50 with Malme-3M, in the assay on SK-MEL-28, in the assay with ACHN, with HOP-62, in the assay with UO-31 and in the assay on UACC-257 was > 100 µM (inactive) each time. For the same compound, the GI50 in the assay on OVCAR-4, in the assay with HL-60, with COLO 205, in the assay with HT-29, in the assay with NCI-H522 and with SK-OV-3 was > 100 µM (inactive) in each case.
As to `C=C(c1ccccc1)[C@@]1(O)CCCC[C@H]1NC(c1ccccc1)c1ccccc1`, the GI50 in the assay on OVCAR-8 is 13.8 µM (inactive); in the assay on HCT-116, 7.93 µM (inactive); in the assay with IGROV-1 it was 16.2 µM (inactive); with HCC 2998 it was 12.6 µM (inactive); in the assay on HCT-15, 10.9 µM; in the assay with Malme-3M, 16.1 µM (inactive). The GI50 in the assay with NCI-H23 is 8.3 µM (inactive); in the assay with SK-MEL-28, 15.5 µM (inactive); in the assay with ACHN it was 11.7 µM (inactive); in the assay with HOP-62, 15.1 µM (inactive); with UO-31, 14.5 µM (inactive); with UACC-257 it was 10.5 µM (inactive). Moreover, the GI50 was 14.1 µM (inactive) with OVCAR-4; 2.65 µM (inactive) with HL-60; 14.2 µM (inactive) in the assay with COLO 205; 11.7 µM (inactive) in the assay on HT-29; 8.85 µM (inactive) with NCI-H522; 19.1 µM (inactive) in the assay with SK-OV-3. Also, in the assay with A498, the GI50 was 13.9 µM (inactive).
In the case of `NC(Cc1ccc(B(O)O)cc1)C(=O)NC(CO)CO` (stereo unspecified), the GI50 was > 100 µM (inactive) in the assay on OVCAR-8; > 100 µM (inactive) in the assay on HCT-116; > 100 µM (inactive) in the assay on IGROV-1; > 100 µM (inactive) in the assay with PC-3; > 100 µM (inactive) in the assay on HCC 2998; above 100 µM with HCT-15. The GI50 in the assay with Malme-3M, in the assay on NCI-H23, with SK-MEL-28, with ACHN, with HOP-62 and with UO-31 was > 100 µM (inactive) each time. Further, the GI50 with UACC-257, with OVCAR-4, in the assay on COLO 205, in the assay on HT-29, in the assay on NCI-H522 and in the assay on SK-OV-3 was > 100 µM (inactive) throughout.
Turning to `CCOC(=O)CCC(=O)C1c2cccc(O)c2C(=O)c2c(O)cc(C)cc21` (stereo unspecified), the GI50 was 0.764 µM (active) with OVCAR-8; 0.805 µM (active) in the assay with HCT-116; 0.289 µM (active) in the assay with IGROV-1; 0.507 µM (active) in the assay on HCC 2998; 0.826 µM with HCT-15; 1.34 µM (inactive) in the assay with Malme-3M. Besides, the GI50 in the assay on NCI-H23 was 0.962 µM (active); with SK-MEL-28, 1.48 µM (inactive); in the assay with ACHN, 0.993 µM (active); in the assay on HOP-62 it was 0.656 µM (active); in the assay on UO-31 it was 0.627 µM (active); with UACC-257 it was 1.41 µM (inactive). Further, the GI50 is 0.569 µM (active) in the assay with OVCAR-4; 0.676 µM (active) in the assay with HL-60; 2 µM (inactive) in the assay with COLO 205; 2.47 µM (inactive) in the assay with HT-29; 0.392 µM (active) with NCI-H522; 0.865 µM (active) in the assay with SK-OV-3. Also, the GI50 in the assay with A498 is 2.28 µM (inactive).
In the case of `O=C(c1ccccc1)n1[nH]c(=O)n(-c2ccc(Cl)cc2)c1=O`, the GI50 with OVCAR-8 is > 100 µM (inactive); in the assay with HCT-116, > 100 µM (inactive); in the assay with IGROV-1, > 100 µM (inactive); in the assay on PC-3, > 100 µM (inactive); with HCC 2998, > 100 µM (inactive); in the assay with HCT-15 it was above 100 µM. For the same compound, the GI50 with Malme-3M, in the assay on NCI-H23, in the assay with SK-MEL-28, in the assay with ACHN, in the assay with HOP-62 and with UO-31 was > 100 µM (inactive) in each case. In addition, the GI50 in the assay on UACC-257, with OVCAR-4, in the assay on HL-60, with COLO 205, in the assay on HT-29 and in the assay with SK-OV-3 was > 100 µM (inactive) each time.
`CCOC(=O)COc1ccccc1/C=C1\CCC(CN(C)C)C1=O` (stereo unspecified): the GI50 with OVCAR-8 was 4.2 µM (inactive); with HCT-116, 3.4 µM (inactive); with IGROV-1, 13.3 µM (inactive); with HCC 2998, 2.46 µM (inactive); in the assay with HCT-15 it was 3.24 µM; with Malme-3M it was 5.19 µM (inactive). For the same compound, the GI50 is 8.41 µM (inactive) in the assay with NCI-H23; 2.62 µM (inactive) in the assay with SK-MEL-28; 13.9 µM (inactive) in the assay with ACHN; 20.6 µM (inactive) in the assay with HOP-62; 16.3 µM (inactive) in the assay on UO-31; 5.66 µM (inactive) with UACC-257. Further, the GI50 is 16.5 µM (inactive) in the assay with OVCAR-4; 0.607 µM (active) with HL-60; 3.9 µM (inactive) in the assay with COLO 205; 5.86 µM (inactive) in the assay on HT-29; 2.72 µM (inactive) with NCI-H522; 17.5 µM (inactive) with SK-OV-3. Also, the GI50 with A498 was 17.2 µM (inactive).
As for `Cc1ccc2c(c1)C(=O)/C(=C1/CCc3ccc(C)cc31)C2`, the GI50 with OVCAR-8 was 48.6 µM (inactive); in the assay with HCT-116 it was 59 µM (inactive); in the assay on IGROV-1, > 100 µM (inactive); in the assay with HCC 2998 it was > 100 µM (inactive); in the assay on HCT-15, above 100 µM; in the assay on Malme-3M it was > 100 µM (inactive). The GI50 with NCI-H23, with SK-MEL-28, in the assay with ACHN, with HOP-62, in the assay with UO-31 and in the assay on UACC-257 was > 100 µM (inactive) each time. The GI50 with OVCAR-4 is 30.4 µM (inactive); in the assay on HL-60, > 100 µM (inactive); with COLO 205 it was 57.9 µM (inactive); with HT-29, > 100 µM (inactive); in the assay with NCI-H522, 32.4 µM (inactive); with SK-OV-3 it was > 100 µM (inactive). Further, in the assay on A498, the GI50 is > 100 µM (inactive).
Consider `COc1cc2c(cc1OC)C1CN3CCCC3C(O)C1c1cc(OC)c(OC)cc1-2` (stereo unspecified), for which the GI50 was > 100 µM (inactive) with OVCAR-8; > 100 µM (inactive) in the assay on HCT-116; > 100 µM (inactive) in the assay with IGROV-1; > 100 µM (inactive) with HCC 2998; above 100 µM in the assay with HCT-15; > 100 µM (inactive) with Malme-3M. The GI50 in the assay with NCI-H23 is > 100 µM (inactive); in the assay with SK-MEL-28, > 100 µM (inactive); in the assay on ACHN, > 100 µM (inactive); with HOP-62 it was 40.2 µM (inactive); in the assay on UO-31, > 100 µM (inactive); with UACC-257, > 100 µM (inactive). Further, the GI50 in the assay on OVCAR-4, in the assay with HL-60, with COLO 205, in the assay with HT-29, in the assay with NCI-H522 and in the assay on SK-OV-3 was > 100 µM (inactive) in each case. The GI50 with A498 was > 100 µM (inactive).
